Source: ChEMBL document CHEMBL6134883, “Novel Piperidinylpyridinylcarbonitrile Derivatives as QPCT and QPCTL Inhibitors for Treating Cancer” (ACS Med Chem Lett, 2025)

experiment: Inhibition of N-terminal His/DDK-tagged recombinant human QPCTL extracted from HEK293T cells using QLLFNKTKSVEFTFC as substrate preincubated for 10 mins followed by substrate addition measured after 40 mins by MALDI-TOF MS analysis; format: cell-free

Row | SMILES | IC50 [nM]
1 | Cc1ccccc1-c1ccc2c(-c3nccc(C#N)c3N3CCC(F)(c4nncn4C)CC3)cnn2n1 | 1
2 | Cn1cnnc1C1(F)CCN(c2c(C#N)cc(C(C)(C)O)nc2-c2cnc3nn(C(C)(C)C)c(Cl)c3c2)CC1 | 1
3 | Cc1ccc(-c2ccc3c(-c4nccc(C#N)c4N4CCC(F)(c5nncn5C)CC4)cnn3n2)c(C)c1 | 1

Second part, the compound after the results:

Row | IC50 [nM] | SMILES
4 | 1 | Cn1cnnc1C1(F)CCN(c2c(C#N)cc(C3CC3(F)F)nc2-c2cnc3nn(C(C)(C)C)cc3c2)CC1 (stereo unspecified)
5 | 1 | Cn1cnnc1C1(F)CCN(c2c(C#N)cc(C(F)(F)F)nc2-c2cnc3nc(C(C)(C)C)oc3c2)CC1
6 | 1 | Cn1cnnc1C1(F)CCN(c2c(C#N)ccnc2-c2cnn3nc(-c4cccc(Cl)c4)ccc23)CC1
